Test results published in US8216974B2, “Fluorine-containing organosulfur compound and pesticidal composition comprising the same” (Sumitomo Chemical Company, Limited, priority 2007, dated 2012).

Key:
Blattalla germanica = assay: Test Example 4: filter paper with sucrose bait, Blattalla germanica; assay type: in vivo; settings: 500 ppm, 0.7 ml on filter paper; 2 male imagoes; after 6 days
Method: (§1) A formulation of any one of the present compounds (1) to (10) obtained according to Formulation Example 15 was diluted with water so that the active ingredient concentration was 500 ppm to obtain a test solution.
A filter paper having a diameter of 5.5 cm was spread on the bottom of a polyethylene cup having a diameter of 5.5 cm and 0.7 ml of the test solution was added dropwise onto the filter paper. As a bait 30 mg of sucrose was uniformly placed on the filter paper. Into the polyethylene cup, 2 male imagoes of Blattalla germanica were released and the cup was sealed with a lid. After 6 days, the number of surviving Blattalla germanica was examined and the death rate of the pest was calculated.

Culex pipiens pallens = assay: Test Example 5: larvae in treated water, Culex pipiens pallens; assay type: in vivo; settings: 24 h, active ingredient concentration 3.5 ppm in water, 20 last-instar larvae, one day after, read-out: pest death rate
Method: as §1
To 100 mL of ion-exchanged water, 0.7 ml of the test solution was added (active ingredient concentration: 3.5 ppm). Into the solution, 20 last-instar larvae of Culex pipiens pallens were released. One day after, the number of surviving Culex pipiens pallens was examined and the death rate of the pest was calculated.

brown rice planthopper = assay: Test Example 6: foliar spray on rice plants versus comparative compound, brown rice planthopper; assay type: in vivo, Nilaparvata lugens; settings: 175 ppm, sprayed 20 ml/cup on rice plants; 30 first-instar larvae released; counted after 6 days at 25° C.
Method: In this Test Example, as a comparative compound, a compound disclosed in JP-A 2005-179321 (Compound No. 37 in Table 2) and represented by the formula:
[drawing 112] (hereinafter, referred to as the comparative compound (1)) was used.
Each formulation of the present compound (6) and the comparative compound (1) was obtained according to Formulation Example 15. The formulation was diluted so that the active ingredient concentration was 175 ppm to obtain a test solution.
At the same time, 50 g of culture soil, Bonsol No. 2 (manufactured by Sumitomo Chemical Co., Ltd.) was put into a polyethylene cup, and 10 to 15 seeds of rice were planted therein. The rice plants were grown until the second foliage leaf was developed, and then cut so as to have the same height of 5 cm. The test solution was sprayed on the rice plants in an amount of 20 ml/cup. After the test solution sprayed on the rice plants was dried, the rice plants were placed in a plastic cup for the purpose of preventing test worms from escaping. Thirty first-instar larvae of brown rice planthopper were released into the cup, and the cup was sealed with a lid. Then the cup was placed in a greenhouse at 25° C. for 6 days. Then, the number of parasitic brown rice planthoppers on the rice plants was examined.

Row | Compound | pest death rate (Blattalla germanica) | pest or weed control at 3.5 ppm (Culex pipiens pallens) | number of the parasitic pests (brown rice planthopper)
1 | NC(=O)C(F)(c1cc(F)c(F)c(F)c1)S(=O)(=O)CCC(F)(F)F (stereo not drawn) [present compound (1), 2-fluoro-2-(3,3,3-trifluoropropylsulfonyl)-2-(3,4,5-trifluorophenyl)acetamide] | 100% | ≥ 95% | –
2 | NC(=O)C(F)(c1ccc(Cl)c(F)c1)S(=O)(=O)CCC(F)(F)F (stereo not drawn) [present compound (3), 2-(4-chloro-3-fluorophenyl)-2-fluoro-2-(3,3,3-trifluoropropylsulfonyl)acetamide] | 100% | ≥ 95% | –
3 | NC(=O)C(c1ccc(Cl)cc1)S(=O)(=O)CCC(F)(F)F (stereo not drawn) [present compound (7), 2-(4-chlorophenyl)-2-(3,3,3-trifluoropropylsulfonyl)acetamide] | – | ≥ 10% | –
4 | NC(=O)C(F)(c1ccc(Cl)cc1)S(=O)(=O)CCC(F)(F)F (stereo not drawn) [present compound (4), 2-(4-chlorophenyl)-2-fluoro-2-(3,3,3-trifluoropropylsulfonyl)acetamide] | 100% | ≥ 95% | –
5 | NC(=O)C(Cl)(Cc1cccc(C(F)(F)F)c1)S(=O)(=O)CCC(F)(F)F (stereo not drawn) [present compound (9), 2-chloro-3-(3-trifluoromethylphenyl)-2-(3.3.3-trifluoropropylsulfonyl)propaneamide] | ≥ 50% | ≥ 10% | –
6 | N#CC(SCCC(F)(F)F)c1ccc(Cl)cc1 (stereo not drawn) [comparative compound (1), reference compound] | – | – | ≥ 21
7 | NC(=O)C(F)(c1ccc(C(F)(F)F)cc1)S(=O)(=O)CCC(F)(F)F (stereo not drawn) [present compound (5), 2-fluoro-2-(3,3,3-trifluoropropylsulfonyl)-2-(4-trifluoromethylphenyl)acetamide] | 100% | ≥ 95% | –
8 | CC(C(N)=O)(c1cc(F)c(F)c(F)c1)S(=O)(=O)CCC(F)(F)F (stereo not drawn) [present compound (2), 2-(3,4,5-trifluorophenyl)-2-(3,3,3-trifluoropropylsulfonyl)propaneamide] | 100% | – | –
9 | NC(=O)C(Cl)(Cc1ccccc1C(F)(F)F)S(=O)(=O)CCC(F)(F)F (stereo not drawn) [present compound (10), 2-chloro-3-(2-trifluoromethylphenyl)-2-(3,3,3-trifluoropropylsulfonyl)propaneamide] | – | ≥ 95% | –
10 | NC(=O)C(SCCC(F)(F)F)c1ccc(Cl)cc1 (stereo not drawn) [present compound (6), 2-(4-chlorophenyl)-2-(3,3,3-trifluoropropylsulfanyl)acetamide] | – | – | ≤ 3
